Measurements: patent US8648116B2, “Derivatives of N-(arylamino) sulfonamides including polymorphs as inhibitors of MEK as well as compositions, methods of use and methods for preparing the same” (Ardea Biosciences, Inc., priority 2005, dated 2014)
Where “and” joins values, the source holds several entries; their conditions need not be identical. Equal values may be shown once. Read-outs that look alike come from different tables or passages of the source.

Experiments:
HT29 colon cells = assay: Anchorage-dependent growth inhibition (CellTiterGlo/ATP, 48 hr)
Experimental: (§3) Cells were maintained at 37° C., 5% CO2, and 100% humidity. Colo205 cells were maintained in RPMI supplemented with 10% fetal bovine serum, glutamine (2 mM), penicillin (100 U/ml), and streptomycin (100 μg/ml). For growth inhibition experiments, cells were plated in white 384-well microplates at 1000 cells/20 dwell. After 24 hr, 5 μl of a 5× drug stock solution was added. All drugs were initially prepared as 200× stocks in DMSO, such that final DMSO concentration was 0.5%. Cells were incubated for 48 hr at 37° C. and ATP levels were determined using CellTiterGlo (Promega, Madison, Wis.). […] Non-linear curve-fitting was performed using GraphPad Prism 4 (GraphPad Software, San Diego, Calif.).

[1] = tested on: orthotopic HT-29 human colorectal adenocarcinoma; assay: Growth response of orthotopic HT-29 colon tumors in nude mice; format: in vivo, BALB/c nu/nu mice; settings: for Caecum Weight / Tumour Weight: individual animals; for Average Caecum Weight / Average Tumour Weight: mice surviving to final day
Experimental: (§1) Female BALB/c nu/nu mice (University of Adelaide, Waite Campus, SA, Australia), aged 7-12 weeks, with a body weight range: of 16.58-25.39 g (mean 21.52 g) were used for the study. The mice were divided into 6 Study groups (4 treatment groups and 2 control groups) as follows: • Number of Mice per Group: 10 in Groups 1 to 5 inclusive • 9 in ‘Take-Rate’ Control Group (Group 6)
HT-29 human colorectal adenocarcinoma cells (Passage 4 from working stock VP-Stock 325) were cultured in RPMI1640 cell culture medium, which was supplemented with 10% FBS and penicillin-streptomycin (501 U/mL final concentration). The cells were harvested by trypsinisation, washed twice in HBSS and counted. The cells were then resuspended in HESS and adjusted to a final volume containing 2×10^8 cells/mL. Prior to inoculation, the incision site was liberally swabbed with alcohol and an incision made through the abdominal wall to expose the caecum wall. The needle was introduced through the surface of the caecum wall where 5 μL of cells (1×10^6 cells) were discharged.
A stock solution was prepared weekly and stored at 4° C. Dosing solutions were prepared on each day of administration.
Caecum and tumor wet weight were measured when each were excised post-mortem on the termination day of the study. At the termination of the study, the caecum was excised from all mice in each study group and weighed with the tumors intact. The tumors were then excised from the caecum and weighed.
A two-sample t-test was used to determine the significance in body weight change within a treatment group between Day 0 and the termination day of the study. […] In these groups, a two-sample t-test was used to determine the significance in body weight change within a treatment group between Day 0 and the final treatment day of the study, and between the last treatment day and the termination day of the study.
(§2) A One-Way Analysis of Variance (ANOVA) (All Pairwise Multiple Comparison Procedure and Multiple Comparison versus Control Group) was performed on the caecum weight and tumor weight data at the end of the study.

[2] = tested on: orthotopic Hep3B2.1-7 human hepatic carcinoma; assay: Growth response of orthotopic Hep3B tumors in nude mice; format: in vivo, BALB/c nu/nu mice
Experimental: as §1, with “10-14” for “7-12”, “19.1-29.94” for “16.58-25.39”, “22.95” for “21.52”, “15” for “9”
Hep3B human hepatic carcinoma cells (Passage 2 from working stock VP-Stock 353) were cultured in RPMI1640 cell culture medium, which was supplemented with 10% FBS and penicillin-streptomycin (501 U/mL final concentration). The cells were harvested by trypsinisation, washed twice in HBSS and counted. The cells were then resuspended in HBSS:Matrigel (1:1, v/v) and adjusted to a final volume containing 1×10^8 cells/mL. Prior to inoculation, the incision site was liberally swabbed with alcohol and an incision made through the abdominal wall to expose the liver. The needle was introduced through the surface of the liver where 10 μL of cells (1×10^6 cells) were discharged. The needle was held in this position for approximately 30 seconds to allow the Matrigel® to polymerize in order to avoid leakage of tumor cells into the abdominal cavity.
Treatment commenced 14 days post-inoculation. On Day 7 of the study (21 days post-inoculation), all mice from the ‘Take-Rate’ control group were culled and the livers visually assessed for the presence of tumors.
A stock solution was prepared weekly and stored at 4° C. Dosing solutions were prepared on each day of administration. […] The compound was administered at doses of 2, 10 and 50 mg/kg.
Liver and tumor wet weight were measured when each were excised post-mortem on the termination day of the study. At the termination of the study, livers were excised from all mice in each study group and weighed. The number of visible tumors, if present, was counted. These tumors were removed from the liver and weighed.
as §2, with “liver” for “the caecum”, “study. […] The same statistical analyses were performed on the data for the tumor-bearing mice in the study.” for “study.”

A431 epidermoid cells = assay: Anchorage-dependent growth inhibition (CellTiterGlo/ATP, 48 hr)
Experimental: as §3

[3] = tested on: human renal proximal tubule epithelial cells (RPTEC); assay: Renal cell toxicity (AK release, ATP, 48 hr); format: cell-based
Experimental: Cryopreserved human renal proximal tubule epithelial cells (RPTEC) were obtained from Cambrex and were processed according to manufacturer's instructions. Cells were expanded for 4 days and then plated in 96-well plates at 50,000 cells/well for drug exposure.
After 48 hr, supernatant AK levels were determined using Toxilight, and cellular ATP levels were determined using CellTiterGlo. Full kill values were determined using 15 μM VRX-14686.

A375 melanoma cells = assay: Anchorage-dependent growth inhibition (CellTiterGlo/ATP, 48 hr); format: cell-based, human
[4] = tested on: Colo205 colon cancer cells; assay: as above
Experimental: as §3

[5] = Compound A 2 mg/kg p.o. once daily Day 0 to 18, tumor-bearing mice
[6] = Compound A 10 mg/kg p.o. once daily Day 0 to 18, tumor-bearing mice
[7] = Compound A 50 mg/kg p.o. once daily Day 0 to 18, tumor-bearing mice

Compound: COc1cc(F)c(F)c(Nc2ccc(I)cc2F)c1NS(=O)(=O)C1(C[C@H](O)CO)CC1 [Compound A]
- GI50 (HT29 colon cells; Homo sapiens, HT-29, 48 h, read-out: Anchorage-Dependent GI50 (nM ± sd)): 70 ± 12 nM
- Survival Number (No. Alive/Total) ([1]; Compound A 2 mg/kg p.o. once daily Day 0 to 9): 4/10
- Caecum Weight ([1]; Compound A 2 mg/kg, 2 mg/kg): 0.347 g and 0.170 g and 0.150 g and 0.205 g and 0.377 g and 0.233 g and 0.251 g and 0.322 g
- Tumour Weight ([1]; Compound A 2 mg/kg, 2 mg/kg): 0.001 g (3×) and 0.000 g and 0.005 g (2×) and 0.122 g and 0.003 g
- Average Caecum Weight ([1]; Compound A 2 mg/kg): 0.296 g
- Average Tumour Weight ([1]; Compound A 2 mg/kg): 0.033 g
- Caecum Weight ([1]; Compound A 10 mg/kg, 10 mg/kg): 0.287 g and 0.198 g and 0.258 g and 0.111 g and 0.263 g and 0.237 g and 0.234 g and 0.289 g and 0.320 g and 0.251 g
- Tumour Weight ([1]; Compound A 10 mg/kg, 10 mg/kg): 0.000 g (3×) and 0.257 g and 0.008 g and 0.422 g and 0.001 g and 0.014 g and 0.004 g and 0.100 g
- Average Caecum Weight ([1]; Compound A 10 mg/kg): 0.244 g
- Average Tumour Weight ([1]; Compound A 10 mg/kg): 0.078 g
- Caecum Weight ([1]; Compound A 50 mg/kg, 50 mg/kg): 0.230 g and 0.254 g and 0.238 g and 0.201 g and 0.337 g and 0.169 g and 0.328 g and 0.217 g and 0.312 g and 0.463 g
- Tumour Weight ([1]; Compound A 50 mg/kg, 50 mg/kg): 0.002 g (2×) and 0.000 g and 0.004 g and 0.166 g and 0.655 g and 0.001 g (3×) and 0.026 g
- Average Caecum Weight ([1]; Compound A 50 mg/kg): 0.290 g
- Average Tumour Weight ([1]; Compound A 50 mg/kg): 0.122 g
- No. of Mice with Tumors (out of 10) ([2]; Compound A 2 mg/kg p.o. once daily Day 0 to 18): 6
- Average Liver Weight [2, 5]: 2.775 g
- Average Tumor Weight [2, 5]: 1.776 g
- No. of Mice with Tumors (out of 10) ([2]; Compound A 10 mg/kg p.o. once daily Day 0 to 18): 7
- Average Liver Weight [2, 6]: 2.551 g
- Average Tumor Weight [2, 6]: 1.407 g
- No. of Mice with Tumors (out of 10) ([2]; Compound A 50 mg/kg p.o. once daily Day 0 to 18): 4
- Average Liver Weight [2, 7]: 1.677 g
- Average Tumor Weight [2, 7]: 0.624 g
- GI50 (A431 epidermoid cells; Homo sapiens, A-431, 48 h, read-out: Anchorage-Dependent GI50 (nM ± sd)): > 10000 nM
- AK release (% Cell Survival) RPTEC Human ([3]; Compound A 1.1 (μM), 48 hr): 96%
- ATP (% Cell Survival) RPTEC Human ([3]; Compound A 1.1 (μM), 48 hr): 94%
- AK release (% Cell Survival) RPTEC Human ([3]; Compound A 3.3 (μM), 48 hr): 95%
- ATP (% Cell Survival) RPTEC Human ([3]; Compound A 3.3 (μM), 48 hr): 91%
- AK release (% Cell Survival) RPTEC Human ([3]; Compound A 10.0 (μM), 48 hr): 99%
- ATP (% Cell Survival) RPTEC Human ([3]; Compound A 10.0 (μM), 48 hr): 85%
- AK release (% Cell Survival) RPTEC Human ([3]; Compound A 30.0 (μM), 48 hr): 41%
- ATP (% Cell Survival) RPTEC Human ([3]; Compound A 30.0 (μM), 48 hr): 34%
- GI50 (A375 melanoma cells; Homo sapiens, A-375, A375 Melanoma, BRAF V600E, 48 hr, CellTiterGlo, read-out: Anchorage-Dependent GI50 (nM ± sd)): 67 ± 12 nM
- GI50 ([4]; Homo sapiens, COLO 205, 48 h, read-out: Anchorage-Dependent GI50 (nM ± sd)): 74 ± 45 nM

Compound: COc1cc(F)c(F)c(Nc2ccc(I)cc2F)c1NS(=O)(=O)C1(C[C@H](O)CO)CC1
- GI50 (HT29 colon cells; read-out: Mean GI50, HT29, 48 hr, ATP content, mean of at least three experiments): 70 nM
- HT-29 tumor and caecum weight, trend ([1]; 10 mg/kg p.o.): reduction
- average caecum and tumor weights vs Vehicle Control ([1]; 2, 10 and 50 mg/kg p.o.): no significant difference
- liver and tumor weight ([2]; 2, 10 and 50 mg/kg p.o. once daily): dose-dependent trend in the decrease
- average weight of the tumors vs Vehicle Control ([2]; tumor-bearing mice, 10 mg/kg p.o. once daily): significantly different
- average weight of the tumors vs Vehicle Control ([2]; tumor-bearing mice, 50 mg/kg p.o. once daily): significantly different
- average weight of the liver vs Vehicle Control ([2]; tumor-bearing mice, 50 mg/kg p.o. once daily, p<0.05): significantly different
- GI50 (A431 epidermoid cells; read-out: Mean GI50, A431, 48 hr, ATP content, mean of at least three experiments): 86 nM
- ATP depletion and cell lysis ([3]; RPTEC cells, 48 hr, cell lysis at 30 W (so in the source)): dose dependent ATP depletion and evident cell lysis
- cytotoxicity ([3]; human renal proximal tubule epithelial cells): little cytotoxicity
- GI50 (A375 melanoma cells; A375, 48 hr, ATP content, mean of at least three experiments, read-out: Mean GI50): 71 nM
- GI50 (A375 melanoma cells; A375, separate study, 48 hr, ATP content, read-out: GI50): 56 nM
- ATP, Cell viability, % Control (A375 melanoma cells; A375 cells, 1 uM, 48 hr): 27%
- GI50 ([4]; Colo205, separate study, 48 hr, ATP content): 27 nM
- GI50 ([4]; read-out: Mean GI50, Colo205, 48 hr, ATP content, mean of at least three experiments): 89 nM
